The test system of experiment [1] is U-937. As to the kind of experiment: Antiproliferative activity against human U-937 cells assessed as cell growth inhibition. The format is functional, cell-based.
For experiment [2], the system named is HepG2. In words: Induction of apoptosis in human HepG2 cells by AnnexinV-FITC/PI-staining based flow cytometry. The format is functional, cell-based. The conditions noted are these: dose 25-100 nM. On the technique in general: In flow cytometry, cells or beads pass a laser one at a time.
Experiment [3] deals with HepG2. In words: Antiproliferative activity against human HepG2 cells assessed as cell growth inhibition. The format is functional, cell-based.
For experiment [4], the system named is HepG2. As to the kind of experiment: Induction of cell cycle arrest in human HepG2 cells assessed as accumulation of cells at S phase at 50 nM incubated for 24 hrs by propidium iodide staining based flow cytometric analysis (reference value: 22.36%). The format is functional.
The test system of experiment [5] is HepG2. In words: Induction of cell cycle arrest in human HepG2 cells assessed as accumulation of cells at G1 phase at 50 nM incubated for 6 hrs by propidium iodide staining based flow cytometric analysis (reference value: 62.58%). The format is functional.
Experiment [6] relates to HepG2. In words: Induction of cell cycle arrest in human HepG2 cells assessed as accumulation of cells at G2 phase at 25 nM by propidium iodide staining based flow cytometric analysis (reference value: 8.58%). The format is functional.
The test system of experiment [7] is HepG2. As to the kind of experiment: Induction of cell cycle arrest in human HepG2 cells assessed as accumulation of cells at G2 phase at 50 nM by propidium iodide staining based flow cytometric analysis (reference value: 8.58%). It is filed as functional.
Experiment [8] has as its system HepG2. As to the kind of experiment: Inhibition of cell migration in human HepG2 cells at 25 to 100 nM incubated for 48 hrs by wound healing assay. It is filed as functional, cell-based. Particulars: dose 25-100 nM.
The subject of experiment [9] is HepG2. As to the kind of experiment: Induction of cell cycle arrest in human HepG2 cells assessed as accumulation of cells at G1 phase at 50 nM by propidium iodide staining based flow cytometric analysis (reference value: 72.08 %). It is filed as functional.
In experiment [10] the test system is HepG2. As to the kind of experiment: Induction of cell cycle arrest in human HepG2 cells assessed as accumulation of cells at S phase at 50 nM incubated for 6 hrs by propidium iodide staining based flow cytometric analysis (reference value: 22.36%). The format is functional.
Experiment [11] has as its system HepG2. As to the kind of experiment: Induction of cell cycle arrest in human HepG2 cells assessed as accumulation of cells at G1 phase at 100 nM by propidium iodide staining based flow cytometric analysis (reference value: 72.08 %). The format is functional.
Experiment [12] concerns the target T1, Tubulin (Homo sapiens) (UniProt P68371+Q9H4B7+P0DPH7+P68366+Q13509+Q71U36+P04350+Q3ZCM7+P07437+P68363+Q9BQE3+Q6PEY2+Q13885+Q9BVA1+Q9BUF5). As to the kind of experiment: Disruption of microtubule assembly in human HepG2 cells assessed as loss of microtubule structure at 100 nM by immunofluorescence analysis. The format is cell-based.
Experiment [13] concerns HepG2. In words: Induction of cell cycle arrest in human HepG2 cells assessed as accumulation of cells at G1 phase at 50 nM incubated for 12 hrs by propidium iodide staining based flow cytometric analysis (reference value: 62.58%). It is filed as functional.
For experiment [14], the system named is HepG2. As to the kind of experiment: Induction of cell cycle arrest in human HepG2 cells assessed as accumulation of cells at G1 phase at 50 nM incubated for 24 hrs by propidium iodide staining based flow cytometric analysis (reference value: 62.58%). It is filed as functional.
In experiment [15] the target is T1, Tubulin (Homo sapiens). In words: Inhibition of tubulin (unknown origin) polymerization assessed as reduction in fluorescence intensity at 4 uM. The format is protein-complex assay.
Experiment [16] has as its system HepG2. In words: Induction of cell cycle arrest in human HepG2 cells assessed as accumulation of cells at G2 phase at 100 nM by propidium iodide staining based flow cytometric analysis (reference value: 8.58%). It is filed as functional.
The target in experiment [17] is T1, Tubulin (Homo sapiens). In words: Disruption of microtubule assembly in human HepG2 cells assessed as changes in cell morphology at 100 nM by immunofluorescence analysis. The format is cell-based.
In experiment [18] the test system is HepG2. In words: Induction of cell cycle arrest in human HepG2 cells assessed as accumulation of cells at G2 phase at 50 nM incubated for 6 hrs by propidium iodide staining based flow cytometric analysis (reference value: 15.06%). It is filed as functional.
The subject of experiment [19] is HepG2. As to the kind of experiment: Induction of cell cycle arrest in human HepG2 cells assessed as accumulation of cells at S phase at 50 nM incubated for 12 hrs by propidium iodide staining based flow cytometric analysis (reference value: 22.36%). The format is functional.
For experiment [20], the system named is A549. In words: Antiproliferative activity against human A549 cells assessed as cell growth inhibition. The format is functional, cell-based.
Experiment [21] concerns Y79. In words: Antiproliferative activity against human Y79 cells assessed as cell growth inhibition. It is filed as functional, cell-based.
In experiment [22] the test system is HepG2. In words: Induction of cell cycle arrest in human HepG2 cells assessed as accumulation of cells at S phase at 100 nM by propidium iodide staining based flow cytometric analysis (reference value: 19.34%). It is filed as functional.
For experiment [23], the system named is HepG2. In words: Inhibition of cell invasion in human HepG2 cells by transwell invasion assay. It is filed as functional, cell-based. The conditions noted are these: dose 25-100 nM.
Experiment [24] concerns HepG2. As to the kind of experiment: Induction of cell cycle arrest in human HepG2 cells assessed as accumulation of cells at S phase at 25 nM by propidium iodide staining based flow cytometric analysis (reference value: 19.34%). The format is functional.
Experiment [25] deals with HepG2. As to the kind of experiment: Induction of cell cycle arrest in human HepG2 cells assessed as accumulation of cells at G1 phase at 25 nM by propidium iodide staining based flow cytometric analysis (reference value: 72.08 %). It is filed as functional.
Experiment [26] deals with HepG2. As to the kind of experiment: Induction of cell cycle arrest in human HepG2 cells assessed as accumulation of cells at G2 phase at 50 nM incubated for 24 hrs by propidium iodide staining based flow cytometric analysis (reference value: 15.06%). It is filed as functional.
Experiment [27] deals with HepG2. As to the kind of experiment: Induction of cell cycle arrest in human HepG2 cells assessed as accumulation of cells at S phase at 50 nM by propidium iodide staining based flow cytometric analysis (reference value: 19.34%). It is filed as functional.
The subject of experiment [28] is HepG2. As to the kind of experiment: Induction of cell cycle arrest in human HepG2 cells assessed as accumulation of cells at G2 phase at 50 nM incubated for 12 hrs by propidium iodide staining based flow cytometric analysis (reference value: 15.06%). The format is functional.

The structures appear in SMILES notation. Calls of active or inactive are those of the source. The rule behind the calls is not given here. Some results are limits rather than exact numbers.

Usually IC50 stands for the point on the concentration scale where inhibition reaches its midpoint.

On to `COc1cc(C(/C=C/c2ccc3[nH]ccc3c2)=N/O)cc(OC)c1OC`, for which the IC50 worked out at 138 nM in [1], 65 nM in experiment [3], 271 nM in experiment [20] and 251 nM in experiment [21]. Besides, the Activity entry was “Dose-Dependent Effect” in [2]; 26.95% in experiment [4]; 63.46% in experiment [5]; 23.54% in experiment [6]; 38.86% in experiment [7]; 56.33% in experiment [9]. Besides, the Activity in [10] was 18.56%; in experiment [11] it was 6%; in experiment [13] it was 56.18%; in experiment [14], 60.13%; in experiment [16], 70.39%; in experiment [18] it was 17.98%. Further, the Activity in experiment [19] came to 17.79%; in experiment [22] it was 23.61%; in [24] it was 4.78%; in [25], 71.68%; in experiment [26], 26.95%; in experiment [27], 4.81%. Further, the Activity in [28] was found to be 25.73%. Further, the inhibition entry in [8] and in experiment [15] was “Active” each time. Moreover, the outcome in [12] and in experiment [17] was Active. The inhibition entry in experiment [23] was “Dose-Dependent Effect”.

On to `COc1cc(C2=NNC(c3cc4ccccc4s3)C2)cc(OC)c1OC` (configuration not stated), for which the concentration for half-maximal inhibition (IC50) in experiment [1], in experiment [3], in experiment [20] and in [21] was more than 10000 nM in each case.

Source of the values: ChEMBL document CHEMBL5252560 (Bioorg Med Chem Lett, 2023).
